Assay results reported in publication PMC4286194 (Biochemical Journal, 2015).

Legend:
MAP4K3 = target: T1, MAP4K3 (Homo sapiens, UniProt Q8IVH8); assay: Kinase profiling; type: biochemical
T1 sequence (Q8IVH8 1-894): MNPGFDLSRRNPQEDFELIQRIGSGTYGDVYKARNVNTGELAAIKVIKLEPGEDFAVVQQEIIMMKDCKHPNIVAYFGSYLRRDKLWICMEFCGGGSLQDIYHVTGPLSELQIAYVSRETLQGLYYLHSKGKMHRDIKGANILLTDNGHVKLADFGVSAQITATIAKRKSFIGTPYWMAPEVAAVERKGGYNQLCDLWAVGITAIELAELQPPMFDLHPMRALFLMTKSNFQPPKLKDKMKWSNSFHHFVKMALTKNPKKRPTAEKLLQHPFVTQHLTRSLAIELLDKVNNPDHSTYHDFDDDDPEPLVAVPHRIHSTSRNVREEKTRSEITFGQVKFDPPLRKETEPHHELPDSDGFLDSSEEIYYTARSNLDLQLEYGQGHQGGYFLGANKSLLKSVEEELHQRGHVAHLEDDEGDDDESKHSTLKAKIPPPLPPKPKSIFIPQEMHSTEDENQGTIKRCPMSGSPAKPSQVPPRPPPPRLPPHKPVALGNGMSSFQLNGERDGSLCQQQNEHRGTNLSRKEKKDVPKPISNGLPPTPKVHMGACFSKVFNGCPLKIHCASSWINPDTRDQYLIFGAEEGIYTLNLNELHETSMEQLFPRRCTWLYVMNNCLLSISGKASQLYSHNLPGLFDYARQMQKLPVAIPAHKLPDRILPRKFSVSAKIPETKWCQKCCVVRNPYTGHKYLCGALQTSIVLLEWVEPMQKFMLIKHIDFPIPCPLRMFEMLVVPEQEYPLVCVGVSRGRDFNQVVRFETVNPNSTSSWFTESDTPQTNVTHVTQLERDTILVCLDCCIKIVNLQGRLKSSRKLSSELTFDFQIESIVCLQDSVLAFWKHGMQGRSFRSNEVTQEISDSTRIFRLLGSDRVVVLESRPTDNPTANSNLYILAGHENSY

RIPK2 = RIPK2 (Homo sapiens, UniProt O43353); assay: Kinase profiling; type: biochemical
Chain of RIPK2 (O43353 whole entry): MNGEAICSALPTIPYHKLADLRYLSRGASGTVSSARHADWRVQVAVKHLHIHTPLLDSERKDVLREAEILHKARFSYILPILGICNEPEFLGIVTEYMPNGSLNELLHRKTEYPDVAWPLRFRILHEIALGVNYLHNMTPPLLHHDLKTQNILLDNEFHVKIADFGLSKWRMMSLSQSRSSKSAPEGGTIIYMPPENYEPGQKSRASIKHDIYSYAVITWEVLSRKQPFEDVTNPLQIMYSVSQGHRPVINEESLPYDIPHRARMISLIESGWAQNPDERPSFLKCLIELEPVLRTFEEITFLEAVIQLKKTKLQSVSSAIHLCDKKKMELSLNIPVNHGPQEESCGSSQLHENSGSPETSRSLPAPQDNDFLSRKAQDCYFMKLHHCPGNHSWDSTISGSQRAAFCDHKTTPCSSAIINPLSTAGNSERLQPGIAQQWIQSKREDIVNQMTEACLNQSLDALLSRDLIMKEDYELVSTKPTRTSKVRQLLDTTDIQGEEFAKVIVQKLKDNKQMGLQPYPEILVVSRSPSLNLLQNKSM

PRK2 = PRK2 (Homo sapiens, UniProt Q16513); assay: Kinase profiling; type: biochemical
Chain of PRK2 (Q16513 whole entry): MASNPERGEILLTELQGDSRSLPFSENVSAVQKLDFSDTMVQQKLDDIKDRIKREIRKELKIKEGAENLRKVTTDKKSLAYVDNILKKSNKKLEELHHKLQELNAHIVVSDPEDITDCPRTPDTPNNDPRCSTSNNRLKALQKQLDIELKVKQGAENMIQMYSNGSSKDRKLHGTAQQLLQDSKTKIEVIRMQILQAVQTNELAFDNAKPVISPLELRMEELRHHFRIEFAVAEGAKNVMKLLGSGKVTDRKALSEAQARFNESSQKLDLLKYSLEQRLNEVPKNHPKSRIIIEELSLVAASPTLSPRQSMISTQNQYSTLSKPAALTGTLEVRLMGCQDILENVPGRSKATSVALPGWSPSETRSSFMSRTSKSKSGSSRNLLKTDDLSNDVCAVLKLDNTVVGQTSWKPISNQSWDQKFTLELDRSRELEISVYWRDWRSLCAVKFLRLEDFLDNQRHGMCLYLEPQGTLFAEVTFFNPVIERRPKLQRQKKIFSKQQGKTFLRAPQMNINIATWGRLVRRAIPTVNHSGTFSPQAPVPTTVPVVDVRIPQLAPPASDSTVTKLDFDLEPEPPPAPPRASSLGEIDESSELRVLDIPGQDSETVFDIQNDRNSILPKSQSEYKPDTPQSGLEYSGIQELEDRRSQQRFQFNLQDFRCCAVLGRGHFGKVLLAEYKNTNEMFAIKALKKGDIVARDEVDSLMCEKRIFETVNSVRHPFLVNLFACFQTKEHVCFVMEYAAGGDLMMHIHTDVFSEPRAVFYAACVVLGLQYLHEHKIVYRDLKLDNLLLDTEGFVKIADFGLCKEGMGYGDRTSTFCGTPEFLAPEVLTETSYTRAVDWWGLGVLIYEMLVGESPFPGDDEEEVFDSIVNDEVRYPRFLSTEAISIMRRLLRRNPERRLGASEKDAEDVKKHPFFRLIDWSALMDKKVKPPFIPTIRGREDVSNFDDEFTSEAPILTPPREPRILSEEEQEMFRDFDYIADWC

IRAK4 = target: T2, IRAK4 (Homo sapiens, UniProt Q9NWZ3); assay: Kinase profiling; type: biochemical
T2 sequence (Q9NWZ3 1-460): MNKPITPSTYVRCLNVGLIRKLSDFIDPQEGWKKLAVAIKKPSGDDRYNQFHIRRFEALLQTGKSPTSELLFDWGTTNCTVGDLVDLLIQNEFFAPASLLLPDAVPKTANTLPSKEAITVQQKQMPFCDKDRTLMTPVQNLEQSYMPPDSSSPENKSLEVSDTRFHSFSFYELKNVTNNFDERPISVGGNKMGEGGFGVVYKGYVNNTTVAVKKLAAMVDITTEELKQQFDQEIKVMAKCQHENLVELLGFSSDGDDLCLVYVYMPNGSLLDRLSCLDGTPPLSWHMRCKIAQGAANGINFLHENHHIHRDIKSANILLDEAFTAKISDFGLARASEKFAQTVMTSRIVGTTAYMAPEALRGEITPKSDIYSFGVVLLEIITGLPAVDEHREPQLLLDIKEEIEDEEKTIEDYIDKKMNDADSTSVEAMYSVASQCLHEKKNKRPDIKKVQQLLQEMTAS

PIM2 = PIM2 (Homo sapiens, UniProt Q9P1W9); assay: Kinase profiling; type: biochemical
Chain of PIM2 (Q9P1W9 whole entry): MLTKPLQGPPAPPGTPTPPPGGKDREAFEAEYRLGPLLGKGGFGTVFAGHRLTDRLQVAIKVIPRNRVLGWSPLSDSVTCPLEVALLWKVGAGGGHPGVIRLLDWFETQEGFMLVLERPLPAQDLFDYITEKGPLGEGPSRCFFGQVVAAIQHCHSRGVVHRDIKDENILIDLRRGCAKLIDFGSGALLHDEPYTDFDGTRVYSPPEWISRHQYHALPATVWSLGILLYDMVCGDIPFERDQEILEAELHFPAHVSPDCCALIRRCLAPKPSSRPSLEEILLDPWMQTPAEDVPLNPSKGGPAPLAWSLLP

TTBK2 = TTBK2 (Homo sapiens, UniProt Q6IQ55); assay: Kinase profiling; type: biochemical
Chain of TTBK2 (Q6IQ55 whole entry): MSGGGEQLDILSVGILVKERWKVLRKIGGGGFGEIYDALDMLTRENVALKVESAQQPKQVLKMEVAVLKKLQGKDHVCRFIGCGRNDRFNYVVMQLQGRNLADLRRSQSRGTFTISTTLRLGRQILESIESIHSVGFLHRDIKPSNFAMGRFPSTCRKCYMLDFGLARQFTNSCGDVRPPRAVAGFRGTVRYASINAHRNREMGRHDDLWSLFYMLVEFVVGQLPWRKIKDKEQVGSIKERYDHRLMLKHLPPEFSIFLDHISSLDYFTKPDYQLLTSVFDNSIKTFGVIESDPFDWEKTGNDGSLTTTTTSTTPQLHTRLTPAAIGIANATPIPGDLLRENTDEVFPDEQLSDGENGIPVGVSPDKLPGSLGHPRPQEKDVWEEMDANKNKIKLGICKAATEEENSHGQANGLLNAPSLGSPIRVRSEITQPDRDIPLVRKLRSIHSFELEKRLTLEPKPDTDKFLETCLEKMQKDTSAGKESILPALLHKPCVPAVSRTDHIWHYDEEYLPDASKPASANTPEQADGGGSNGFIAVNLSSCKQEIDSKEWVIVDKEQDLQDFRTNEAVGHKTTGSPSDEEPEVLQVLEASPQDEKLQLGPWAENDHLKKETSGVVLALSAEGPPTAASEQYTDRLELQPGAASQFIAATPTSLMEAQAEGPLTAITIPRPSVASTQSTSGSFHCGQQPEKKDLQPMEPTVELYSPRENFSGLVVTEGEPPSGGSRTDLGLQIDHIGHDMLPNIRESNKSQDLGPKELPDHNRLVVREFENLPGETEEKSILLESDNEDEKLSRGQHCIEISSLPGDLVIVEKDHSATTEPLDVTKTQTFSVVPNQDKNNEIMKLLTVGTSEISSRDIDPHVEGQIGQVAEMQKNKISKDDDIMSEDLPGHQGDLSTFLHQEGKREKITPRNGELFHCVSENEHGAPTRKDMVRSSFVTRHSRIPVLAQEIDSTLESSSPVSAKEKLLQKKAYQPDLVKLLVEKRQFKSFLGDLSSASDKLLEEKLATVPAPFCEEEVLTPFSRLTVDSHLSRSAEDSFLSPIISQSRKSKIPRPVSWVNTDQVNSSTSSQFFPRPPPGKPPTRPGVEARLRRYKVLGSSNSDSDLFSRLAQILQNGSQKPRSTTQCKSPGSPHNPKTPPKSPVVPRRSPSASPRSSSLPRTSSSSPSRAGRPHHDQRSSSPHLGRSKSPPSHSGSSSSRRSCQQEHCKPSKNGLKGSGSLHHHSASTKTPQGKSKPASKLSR

SIK2[T96Q] = target: T3, SIK2[T96Q] (Homo sapiens, UniProt Q9H0K1, T96Q); type: biochemical; settings: gatekeeper threonine mutated to glutamine
T3 construct: GST; made in house; host or cells: HEK293 cells

PAK6 = PAK6 (Homo sapiens, UniProt Q9NQU5); assay: Kinase profiling; type: biochemical
Chain of PAK6 (Q9NQU5 whole entry): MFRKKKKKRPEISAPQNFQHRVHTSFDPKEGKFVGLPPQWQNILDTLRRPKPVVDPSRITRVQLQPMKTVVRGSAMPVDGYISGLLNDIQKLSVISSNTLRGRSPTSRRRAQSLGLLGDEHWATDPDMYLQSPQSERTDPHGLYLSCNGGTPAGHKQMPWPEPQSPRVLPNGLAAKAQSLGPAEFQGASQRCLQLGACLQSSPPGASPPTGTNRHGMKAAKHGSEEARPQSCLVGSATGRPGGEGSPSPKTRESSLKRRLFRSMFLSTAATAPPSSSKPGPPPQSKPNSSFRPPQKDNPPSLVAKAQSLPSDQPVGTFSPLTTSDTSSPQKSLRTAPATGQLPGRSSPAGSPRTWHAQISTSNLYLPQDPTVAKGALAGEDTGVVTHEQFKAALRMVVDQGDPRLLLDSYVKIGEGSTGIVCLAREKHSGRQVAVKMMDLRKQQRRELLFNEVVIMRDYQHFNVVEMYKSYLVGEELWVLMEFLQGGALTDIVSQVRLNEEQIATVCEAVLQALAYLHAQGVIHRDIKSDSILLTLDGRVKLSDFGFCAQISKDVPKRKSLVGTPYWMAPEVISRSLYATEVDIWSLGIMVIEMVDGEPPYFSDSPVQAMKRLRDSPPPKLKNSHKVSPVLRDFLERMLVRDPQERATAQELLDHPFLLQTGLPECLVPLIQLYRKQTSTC

PDGFRA = PDGFRA (Homo sapiens, UniProt P16234); assay: Kinase profiling; type: biochemical
Chain of PDGFRA (P16234 24-1089): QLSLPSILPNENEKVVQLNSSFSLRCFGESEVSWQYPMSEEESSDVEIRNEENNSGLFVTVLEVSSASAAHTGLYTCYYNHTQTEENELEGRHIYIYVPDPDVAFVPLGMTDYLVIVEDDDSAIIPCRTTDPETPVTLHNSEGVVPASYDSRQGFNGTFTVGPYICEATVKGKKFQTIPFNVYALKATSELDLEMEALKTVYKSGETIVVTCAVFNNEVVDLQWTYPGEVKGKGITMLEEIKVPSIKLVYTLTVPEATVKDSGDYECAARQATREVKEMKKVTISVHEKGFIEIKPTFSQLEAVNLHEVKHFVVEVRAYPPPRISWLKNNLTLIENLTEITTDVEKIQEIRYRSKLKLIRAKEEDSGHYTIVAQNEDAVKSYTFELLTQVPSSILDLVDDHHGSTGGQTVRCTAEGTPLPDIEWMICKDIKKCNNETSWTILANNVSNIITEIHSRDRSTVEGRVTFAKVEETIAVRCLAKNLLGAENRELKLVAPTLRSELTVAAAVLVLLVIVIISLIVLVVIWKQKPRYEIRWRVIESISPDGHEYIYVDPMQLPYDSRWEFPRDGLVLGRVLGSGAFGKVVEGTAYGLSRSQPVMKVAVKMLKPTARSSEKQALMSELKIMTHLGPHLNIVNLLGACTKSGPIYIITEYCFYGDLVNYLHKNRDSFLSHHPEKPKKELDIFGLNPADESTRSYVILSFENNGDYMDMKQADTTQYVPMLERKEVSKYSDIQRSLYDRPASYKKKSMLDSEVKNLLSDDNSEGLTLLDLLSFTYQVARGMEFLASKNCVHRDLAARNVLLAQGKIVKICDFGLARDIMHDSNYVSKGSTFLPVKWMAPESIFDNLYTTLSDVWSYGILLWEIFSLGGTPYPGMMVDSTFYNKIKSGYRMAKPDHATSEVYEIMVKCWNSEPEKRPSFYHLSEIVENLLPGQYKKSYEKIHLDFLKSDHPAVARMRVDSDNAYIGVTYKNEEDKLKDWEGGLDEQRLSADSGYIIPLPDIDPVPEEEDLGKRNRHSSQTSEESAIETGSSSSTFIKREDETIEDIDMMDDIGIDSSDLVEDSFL

[1] = test system: Bone-marrow-derived macrophages; assay: CREB-dependent gene transcription (qPCR); type: cell-based, mouse; settings: 3 μM bosutinib or 0.3 μM dasatinib; LPS or Pam3CSK4
Description: mRNA was extracted from cells using the MicroElute Total RNA kit following the manufacturers’ instructions (Omega Bio-Tek). cDNA was generated from 0.5 μg of total RNA using the iScript cDNA synthesis kit and quantified by quantitative real-time PCR (qPCR) using the SsoFast EvaGreen Supermix on a CFX384 real-time system (Bio-Rad Laboratories). The relative expression of each gene was calculated from CT values using the Pfaffl method and was normalized against the mRNA levels of housekeeping genes including 18S RNA and GAPDH. Results are reported relative to untreated control cells, which were set to 1.

CRTC3 = CRTC3 phosphorylation (immunoprecipitation, immunoblot); type: cell-based; settings: RAW264.7 macrophages, 1 h
Description: RAW264.7 cells were cultured in DMEM containing 10% FBS, 2 mM glutamine and penicillin and streptomycin. […] Cells were treated for 1 h with or without inhibitors and then stimulated for up to 24 h with either 1 μg/ml Pam3CSK4 or 100 ng/ml LPS.
Cells were extracted in lysis buffer [50 mM Tris/HCl, pH 7.4, 1 mM EDTA, 1 mM EGTA, 50 mM NaF, 5 mM sodium pyrophosphate, 10 mM sodium β-glycerol 1-phosphate, 1 mM DTT, 1 mM sodium orthovanadate, 0.27 M sucrose, 1% (v/v) Triton X-100, 1 μg/ml aprotinin, 1 μg/ml leupeptin and 1 mM PMSF]. Cell extracts were clarified by centrifugation and protein concentrations were determined using the Bradford assay. To immunoprecipitate endogenous CRTC3, 1 mg of cell extract was incubated with 5 μg of anti-CRTC3 [13] covalently cross-linked on to Protein G–Sepharose. Immune complexes were washed three times with lysis buffer, eluted in 1% SDS and separated by SDS/PAGE. To detect proteins in cell lysates, 20 μg of protein extract was separated by SDS/PAGE. After transfer to PVDF membranes, proteins were detected by immunoblotting and visualized by treating the blots with ECL (GE Healthcare) followed by autoradiography.

DYRK3 = target: T4, DYRK3 (Homo sapiens, UniProt O43781); assay: Kinase profiling; type: biochemical
T4 sequence (O43781 1-588): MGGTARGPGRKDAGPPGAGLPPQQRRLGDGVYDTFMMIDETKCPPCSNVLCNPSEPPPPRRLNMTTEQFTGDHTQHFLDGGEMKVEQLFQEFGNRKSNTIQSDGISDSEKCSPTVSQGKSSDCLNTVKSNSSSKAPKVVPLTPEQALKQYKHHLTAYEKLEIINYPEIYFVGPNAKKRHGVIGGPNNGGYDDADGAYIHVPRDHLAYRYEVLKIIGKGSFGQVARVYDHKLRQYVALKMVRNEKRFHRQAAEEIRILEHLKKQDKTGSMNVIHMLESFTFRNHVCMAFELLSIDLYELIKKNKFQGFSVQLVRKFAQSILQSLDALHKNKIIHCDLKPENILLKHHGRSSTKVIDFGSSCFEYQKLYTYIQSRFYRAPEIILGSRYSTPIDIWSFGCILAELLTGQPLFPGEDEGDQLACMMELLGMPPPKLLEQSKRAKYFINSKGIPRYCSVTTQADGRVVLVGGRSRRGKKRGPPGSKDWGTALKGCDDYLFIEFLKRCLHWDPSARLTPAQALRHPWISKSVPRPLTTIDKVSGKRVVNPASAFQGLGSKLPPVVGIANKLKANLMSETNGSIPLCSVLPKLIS

| Structure (SMILES) | remaining activity at 0.1 µM (MAP4K3) [%] | remaining activity at 1 µM (MAP4K3) [%] | remaining activity at 0.1 µM (RIPK2) [%] | remaining activity at 1 µM (RIPK2) [%] | remaining activity at 0.1 µM (PRK2) [%] | remaining activity at 1 µM (PRK2) [%] | remaining activity at 0.1 µM (IRAK4) [%] | remaining activity at 1 µM (IRAK4) [%] | remaining activity at 0.1 µM (PIM2) [%] | remaining activity at 1 µM (PIM2) [%] | remaining activity at 0.1 µM (TTBK2) [%] | remaining activity at 1 µM (TTBK2) [%] | Loss of sensitivity of SIK2[T96Q] versus wild-type (SIK2[T96Q]) | remaining activity at 1 µM (PAK6) [%] | remaining activity at 0.1 µM (PDGFRA) [%] | Transcription of CREB-dependent genes IL-10, Nurr77 and c-FOS [1] | Phosphorylation of CRTC3 at Ser162 and Ser370 (CRTC3) | remaining activity at 0.1 µM (DYRK3) [%] | remaining activity at 1 µM (DYRK3) [%] | further results |
| --- | --- | --- | --- | --- | --- | --- | --- | --- | --- | --- | --- | --- | --- | --- | --- | --- | --- | --- | --- | --- |
| COc1cc(Nc2c(C#N)cnc3cc(OCCCN4CCN(C)CC4)c(OC)cc23)c(Cl)cc1Cl [Bosutinib, bosutinib] | 3 | 1 | 86 ± 2 | 45 ± 1 | 86 ± 6 | 56 ± 3 | 55 ± 3 | 23 | 99 | 96 ± 8 | 87 ± 6 | 92 ± 6 | 100–1000 fold | 132 ± 7 | 96 ± 1 | elevated the transcription | dephosphorylation | 85 ± 11 | 90 ± 16 | remaining activity at 1 µM (PDGFRA; 1 µM): 79% |
| Cc1nc(Nc2ncc(C(=O)Nc3c(C)cccc3Cl)s2)cc(N2CCN(CCO)CC2)n1 [Dasatinib] | 88 ± 15 | 54 ± 1 | 5 | 10 ± 12 | 100 ± 2 | 101 | 112 ± 24 | 102 ± 6 | 104 ± 3 | 105 ± 1 | 110 ± 5 | 117 ± 7 | 100–1000 fold | 120 ± 4 | 6 ± 1 | elevated the transcription | dephosphorylation | 98 ± 7 | 104 ± 9 | remaining activity at 0.1 µM (PAK6; 0.1 µM): 126 ± 9% |
